Legend:
J774 [1] = test: Antiinflammatory activity in mouse J774 cells assessed as inhibition of LPS/IFNgamma-induced NO production incubated for 24 hrs by Griess method; type: functional, cell-based; conditions: J774, 24 h
J774 [2] = test: Antiinflammatory activity in mouse J774 cells assessed as LPS/IFNgamma-induced IL-1beta level at 25 uM incubated for 24 hrs by ELISA (reference value: 9.6 to 26.1 pg/mg); type: functional
J774 [3] = test: Antiinflammatory activity in mouse J774 cells assessed as LPS/IFNgamma-induced IL-1beta level at 6.3 uM incubated for 24 hrs by ELISA (reference value: 9.6 to 26.1 pg/mg); type: functional
J774 [4] = test: Antiinflammatory activity in mouse J774 cells assessed as inhibition of LPS/IFNgamma-induced IL-1beta level incubated for 24 hrs by ELISA relative to control; type: functional
[5] = Cytotoxicity against mouse J774 cells assessed as reduction in cell viability after 72 hrs by Alamar Blue assay; type: cell-based
J774 [6] = test: Antiinflammatory activity in mouse J774 cells assessed as LPS/IFNgamma-induced IL-1beta level at 100 uM incubated for 24 hrs by ELISA (reference value: 9.6 to 26.1 pg/mg); type: functional
J774 [7] = test: Antiinflammatory activity in mouse J774 cells assessed as inhibition of LPS/IFNgamma-induced IL-1beta level at 10 uM incubated for 24 hrs by ELISA relative to control; type: functional; conditions: J774, 24 h

Row | IC50 (J774 [1]) [µM] | SMILES | Activity (J774 [2]) [pg/mg] | Activity (J774 [3]) [pg/mg] | Imax (J774 [4]) [%] | CC50 at 72 h [5] [µM] | Activity (J774 [6]) [pg/mg] | inhibition at 10 µM (J774 [7]) [%]
1 | 34.2 | C/C=C(/C)C(=O)OC[C@@H](OC(C)=O)[C@@H](OC(=O)/C(C)=C\C)C(O)(COC(=O)/C(C)=C\C)COC(=O)/C(C)=C\C | 14.6 | 15.6 | 80.6 | 206 | 3.8 | 
2 | 25.3 | CC[C@@H](CO)C(=O)OC[C@@H]1O[C@H](OCc2cc(=O)c3c(O)cc(O)cc3o2)[C@@H](O)[C@H](O)[C@H]1O | 8.6 | 8.4 | 96.2 | 209 | 0.3 | 
3 | 28.2 | C/C=C(/C)C(=O)OCC(O)(COC(=O)/C(C)=C\C)[C@H](OC(=O)/C(C)=C\C)[C@@H](COC(C)=O)OC(C)=O (some centres not stated) | 9.3 | 7.3 | 88.5 | 198 | 1.1 | 
4 | 17.8 | C=C1CC[C@@H]2[C@H](CC2(C)C)[C@@](O)(CO)CC[C@@H]1O | 7 | 14.3 | 93 | 193 | 0.7 | 
5 | 52.2 | CC(=O)OC[C@@]1(O)CC[C@H]2O[C@@]2(C)CC[C@@H]2[C@@H]1CC2(C)C | 6.5 | 10.2 | 75 | 273 | 2.4 | 
6 | 30.3 | C/C1=C/C[C@@H]2[C@H](CC2(C)C)[C@@](O)(CO)CC[C@@H]1O | 14 | 28.6 | 92.5 | 194 | 1.5 | 
7 | 22.4 | O=c1cc(CO)oc2cc(O)cc(O)c12 [CNIDIMOL C] | 10.5 | 15.7 | 72.7 | 256 | 3.9 | 
8 | 5.2 | C[C@@H]1C[C@H]2[C@@H]3CCC4=CC(=O)C=C[C@]4(C)[C@@]3(F)[C@@H](O)C[C@]2(C)[C@@]1(O)C(=O)CO [DEXAMETHASONE] |  |  |  |  |  | 87.1
9 |  | CN(C)c1ccc(C(=C2C=CC(=[N+](C)C)C=C2)c2ccc(N(C)C)cc2)cc1 [GENTIAN VIOLET] |  |  |  | 0.8 |  | 
10 | 66.3 | O=c1cc(CO[C@@H]2O[C@H](CO)[C@@H](O)[C@H](O)[C@H]2O)oc2cc(O)cc(O)c12 [MONNIERISIDE A] | 9.1 | 14.6 | 85.5 | 201 | 2 | 
11 | 51.2 | Cc1cc(=O)c2c(O)cc(O[C@@H]3O[C@H](CO)[C@@H](O)[C@H](O)[C@H]3O)cc2o1 [UNDULATOSIDE A] | 9.5 | 14.5 | 89.6 | 191 | 1.5 | 
